How the values were obtained:
[1] = target: T1, 5-HT2 receptors (Rattus norvegicus, UniProt P14842); assay: Inhibition of 3H-ketanserin binding to 5-HT2 receptors in rat cortex in vitro; details: for IC50: 3H-Ketanserin 0.5 nM, rat cortex, 37° C., 30 min, read-out: Receptor Binding, IC50 5-HT2 3H-Ket
T1 construct: cortical tissue is dissected and weighed; from tissue; host or cells: cortex of male Wistar rats, crude membranes

[2] = target: α1 adrenoceptors; assay: Inhibition of 3H-prazosin binding to α1 adrenoceptors in rat brain in vitro; details: for IC50: 3H-Prazosin 0.25 nM, rat brain, 25° C., 20 min, read-out: Receptor Binding, IC50 α1 3H-Praz
[3] = system: male albino BKW mice; assay: Light/dark discrimination test in mice; type: in vivo, mouse; details: intraperitoneally 45 min before testing, doses from 0.01 to 1 mg/kg
Description: LIGHT/DARK DISCRIMATION TEST IN MICE
This test was carried out in accordance with the method described in Costall et al. Br. J. Pharmacol. 90 275P (1987).
The test was conducted using a two compartment activity box in which the actions of anxiolytic compounds to reduce aversion against a brightly-lit environment may be readily detected. The box is designed as an open-top experimental box (45*27*27 cm) one third of which was partitioned from the rest, painted black and illuminated with red light. The remainder of the box was painted white and brightly illuminated (1000 W). The floor of each area was lined into squares. Behavioral changes were determined for each area from video recordings for periods of 40 min.
Data obtained from dose groups of 5 animals (male albino BKW mice, 25-30 g) were analysed using single factor analysis of variance, and Dunnett's t-test. Test compounds were given intraperitoneally 45 min before testing.

[4] = system: Wistar WU rats; assay: Light/dark discrimination test in rats; type: in vivo, rat; details: doses from 0.1 to 1 mg/kg
Description: LIGHT/DARK DISCRIMINATION TEST IN RATS
The test was carried out similarly to the test in mice described above, however modified in accordance with F. C. Colpaert et al., Psychopharmacology (1985) 86:45-54. The test used Wistar WU rats.

[5] = target: T2, dopamine D-2 receptors (Rattus norvegicus, UniProt P61169); assay: Inhibition of 3H-spiperone binding to dopamine D-2 receptors in rat corpus striatum in vitro; details: 3H-spiperone 0.5 nM, rat corpus striatum, 37° C., 10 min; read-out: Receptor Binding; IC50 DA D-2 3H-Spi
T2 construct: striatal tissue is dissected and weighed; from tissue; host or cells: corpus striatum of male Wistar rats, crude membranes
Description: INHIBITION OF ^3 H-SPIPERONE BINDING TO DOPAMINE D-2 RECEPTORS IN RAT CORPUS STRIATUM IN VITRO
By this method the inhibition by drugs of the binding of ^3 H-spiperone (0.5 nM) to dopamine D-2 receptors in membranes from rat corpus striatum is determined in vitro.
Male Wistar (Mol:Wistar) rats (125-250 g) are sacrificed and striatal tissue is dissected and weighed. The tissue is homogenized (Ultra Turrax, 10 sec.) in 10 ml of ice-cold 50 mM K-phosphate buffer pH 7.4 (at 25° C.). The homogenate is centrifuged twice at 20,000 g for 10 min. at 4° C. with rehomogenization of the pellet in 10 ml ice-cold buffer. The final pellet is homogenized in 1300 vol (w/v) ice-cold buffer.
Incubation tubes kept on ice in triplicate receive 100 μl of drug solution in water (or water for total binding) and 4000 μl of tissue suspension (final tissue content corresponds to 3.08 mg original tissue). The binding experimental is initiated by addition of 100 μl of ^3 H-spiperone (final concentration 0.5 nM) and by placing the tubes in a 37° C. water bath. After incubation for 10 min. the samples are filtered under vacuum (0-50 mBar) through Whatman GF/F filters (25 mm). The tubes are rinsed with 5 ml ice-cold buffer which are then poured on the filters. Thereafter, the filters are washed with 2×5 ml of buffer. The filters are placed in counting vials and 4 ml of appropriate scintillation fluid (e.g. Picofluor ™15) are added. After shaking for 1 h and storage 2 hrs in the dark the content of radioactivity is determined by liquid scintillation counting. Specific binding is obtained by subtracting the nonspecific binding in the presence of 10 μM of 6,7-ADTN.
For determination of the inhibition of binding five concentrations of drugs covering 3 decades are used.
^3 H-Spiperone=[phenyl-4-^3 H]-spiperone from Amersham International plc. England, specific activity 15-25 Ci/mmol.

[6] = Meert and Janssen, Drug Dev. Res. 1989, 18, 119; cited from earlier work

T2 sequence (P61169 whole entry): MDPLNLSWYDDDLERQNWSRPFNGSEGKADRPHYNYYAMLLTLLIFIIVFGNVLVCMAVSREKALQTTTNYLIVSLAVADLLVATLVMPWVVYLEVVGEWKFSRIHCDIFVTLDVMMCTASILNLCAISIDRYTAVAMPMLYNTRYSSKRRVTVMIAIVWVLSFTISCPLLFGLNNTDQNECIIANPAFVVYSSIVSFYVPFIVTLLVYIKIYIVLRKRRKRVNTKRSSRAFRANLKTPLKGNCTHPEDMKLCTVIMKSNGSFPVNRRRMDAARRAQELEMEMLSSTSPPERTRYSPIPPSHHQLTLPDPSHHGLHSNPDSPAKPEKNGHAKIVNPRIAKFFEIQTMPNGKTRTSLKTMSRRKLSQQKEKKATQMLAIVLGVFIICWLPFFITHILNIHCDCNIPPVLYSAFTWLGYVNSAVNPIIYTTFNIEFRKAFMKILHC
T1 sequence (P14842 whole entry): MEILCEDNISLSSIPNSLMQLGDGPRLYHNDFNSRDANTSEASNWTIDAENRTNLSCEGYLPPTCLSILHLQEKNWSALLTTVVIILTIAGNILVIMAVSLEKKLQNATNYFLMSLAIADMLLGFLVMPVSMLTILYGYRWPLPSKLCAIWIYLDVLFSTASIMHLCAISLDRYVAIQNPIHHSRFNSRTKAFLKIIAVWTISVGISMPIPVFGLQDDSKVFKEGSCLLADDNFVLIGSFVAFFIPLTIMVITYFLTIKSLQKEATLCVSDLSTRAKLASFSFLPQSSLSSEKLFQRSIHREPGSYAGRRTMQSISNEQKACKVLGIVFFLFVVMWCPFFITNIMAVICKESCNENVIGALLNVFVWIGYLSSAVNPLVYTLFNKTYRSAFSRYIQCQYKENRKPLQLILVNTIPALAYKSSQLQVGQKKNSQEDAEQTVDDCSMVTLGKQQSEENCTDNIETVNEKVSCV

SMILES	IC50 [1]	IC50 [2]	anxiolytic activity [3]	anxiolytic activity [4]	IC50 [5]	affinity to 5-HT2 receptors (in words) [1]	affinity to α1 adrenoceptors (in words) [2]	effect in the treatment of anxiety and depression [6]
Fc1ccc([C@@H]2C[C@@H](N3CCN(CCN4CCCNC4=S)CC3)c3ccc(F)cc32)cc1 (single isomer, unassigned) [(+)-30, (+)-Trans-1-[2-[4-[5-fluoro-3-(4-fluorophenyl)-2,3-dihydro-1H-inden-1-yl]piperazin-1-yl]ethyl]-tetrahydro-2(1H)-pyrimidinethione]	0.95 nM	43 nM	significant anxiolytic activity (p<0.05) in doses from 0.01 to 1 mg/kg	–	–	–	–	–
O=C1NCCCN1CCN1CCN([C@@H]2C[C@@H](c3ccc(F)cc3)c3cc(F)ccc32)CC1 (single isomer, unassigned) [(+)-33, (+)-Trans-1-[2-[4-[5-fluoro-3-(4-fluorophenyl)-2,3-dihydro-1H-inden-1-yl]piperazin-1-yl]ethyl]-tetrahydro-2(1H)-pyrimidinone]	1.1 nM	41 nM	significant anxiolytic activity (p<0.05) in doses from 0.01 to 1 mg/kg	significant anxiolytic activity (p<0.05) in doses from 0.1 to 1 mg/kg	–	–	–	–
Fc1ccc([C@@H]2C[C@@H](N3CCN(CCN4CCCNC4=S)CC3)c3ccc(Cl)cc32)cc1 (single isomer, unassigned) [(-)-32, (-)-Trans-1-[2-[4-[5-chloro-3-(4-fluorophenyl)-2,3-dihydro-1H-inden-1-yl]piperazin-1-yl]ethyl]-tetrahydro-2(1H)-pyrimidinethione]	0.75 nM	67 nM	significant anxiolytic activity (p<0.05) in doses from 0.01 to 1 mg/kg	significant anxiolytic activity (p<0.05) in doses from 0.1 to 1 mg/kg	–	–	–	–
CC1(C)CNC(=O)N(CCN2CCN([C@@H]3C[C@@H](c4ccc(F)cc4)c4cc(Cl)ccc43)CC2)C1 (single isomer, unassigned) [Compound 35, (+)-Trans-1-[2-[4-[5-chloro-3-(4-fluorophenyl)-2,3-dihydro-1H-inden-1-yl]piperazin-1-yl]ethyl]-5,5-dimethyl-tetrahydro-2(1H)-pyrimidinone]	4.8 nM	120 nM	–	–	150 nM	–	–	–
O=C1NCCN1CCN1CCN([C@@H]2C[C@@H](c3ccc(F)cc3)c3ccccc32)CC1 [Irindalon, reference compound]	3.4 nM	16 nM	–	–	400 nM	high affinity to 5-HT2 receptors	significant affinity to oh adrenoceptors	–
Cc1nc2sccn2c(=O)c1CCN1CCC(=C(c2ccc(F)cc2)c2ccc(F)cc2)CC1 [Ritanserin, reference compound]	–	47 nM	–	–	12 nM	–	–	effective in the treatment of anxiety and depression

— US5643784A, “Indan derivatives” (H, Lundbeck A/S, priority 1990, dated 1997)
